For assay [1], the system named is HCMV Merlin-GFP. Nature of the assay: HCMV Merlin-GFP replication assay in HFFs. Type of assay: cell-based, human cytomegalovirus. Particulars: Human betaherpesvirus 5, HFF, read-out: EC50 Merlin-GFP. The procedure:
(§1) (i.e., 1 × TCID25/7d). Immediately after virus adsorption, the cells were treated with antiviral compounds or solvent control (DMSO). Infections were performed in biological quadruplicates, or as indicated for individual experiments. The cells were fixed by the addition of 150 µL 10% formalin/well 7 d p.i. (Merlin-GFP 14 d p.i.), and washed with PBS. For GFP or YFP quantitation, the Victor X4 microplate reader (PerkinElmer, Waltham, MA, USA) was primarily used, or as a very sensitive alternative, the ImageXpress® Pico device (Molecular Devices LLC, San Jose, CA, USA). Mean EC50 values of antiviral efficacy were calculated on the basis of three experimental replicates or as indicated (measurement of fluorescence values in quadruplicate), and percentage values were provided relative to the solvent control (DMSO).

In assay [2] the test system is HCMV TB40-YFP. Nature of the assay: HCMV TB40-YFP replication assay in U373 cells. Type of assay: cell-based, human cytomegalovirus. To be noted: Human betaherpesvirus 5, U373 MG, read-out: EC50 TB40-YFP. The procedure:
as §1

Assay [3] has as its system RCMV-mCherry. The assay is described as follows: RCMV-mCherry replication assay in REFs. Type of assay: cell-based, rat cytomegalovirus. Particulars: in Rattus norvegicus, read-out: EC50 RCMV. The text has this:
Similarly, 2 × 10^4 primary embryonic guinea pig fibroblasts GPEFs/96-well, or 1.35 × 10^4 HFFs/96-well, or 2 × 10^4 rat REFs/96-well, or 2 × 10^4 murine MEFs/96-well, were cultivated for infection with GPCMV-GFP, RhCMV-GFP, ChCMV, RCMV-mCherry, or MCMV-GFP, respectively (all approx. MOI of 0.01 referring to 1 × TCID25), and were used for the assessment of antiviral drug activity. To this end, cells were fixed 7 d p.i. (RCMV-mCherry 4 d p.i.), before GFP or mCherry expression was quantified using the Victor X4 microplate reader, or other viral replication markers were measured as explained for the individual experiments. ChCMV replication in HFFs was monitored and quantified by the use of Anti-Cytomegalovirus Antibody Alexa Fluor™ 488. For immunofluorescence staining with Anti-Cytomegalovirus Antibody Alexa Fluor™ 488 (Sigma Aldrich, St. Louis, MO, USA; solution in PBS with 1% FCS), the infected cells were fixed at 7 d p.i. with 10% formalin and permeabilized with 0.2% Triton-x-100. Cell nuclei were counterstained using Höchst dye to be measured using the ImageXpress Pico (Molecular Devices, LLC, San Jose, CA, USA). Mean EC50 values of antiviral efficacy were calculated on the basis of three experimental replicates or as indicated (measurement of fluorescence values in quadruplicate), and percentage values were provided relative to the solvent control (DMSO).

Assay [4] has as its system MHV-68-Luc. Nature of the assay: MHV-68 replication assay in Vero cells. To be noted: Murine herpesvirus, read-out: EC50 MHV-68. Type of assay: cell-based, murine herpesvirus 68. The procedure: Primary human foreskin fibroblasts (HFFs; obtained from clinical samples at Children’s Hospital in Erlangen, Germany), guinea pig embryonic fibroblasts (GPEFs; generously provided by Mark R. Schleiss from the University of Minnesota in Minneapolis, MN, USA), and rat embryonic fibroblasts were cultivated in Eagle’s Minimal Essential Medium (MEM) supplemented with 1 × GlutaMAX™ (both from Thermo Fisher Scientific, Waltham, MA, USA), 10 µg/mL gentamicin, and 10% fetal bovine serum (FBS; Capricorn, Ebsdorfergrund, Germany). Human glioblastoma–astrocytoma cell line (U373) and mouse embryonic fibroblasts (MEFs), both obtained from ATCC (Manassas, VA, USA), and Vero cell sublineage 76 [26], were cultivated in Dulbecco’s modified Eagle’s medium (DMEM) supplemented with 1 × GlutaMAX™, 10 µg/mL gentamicin, and 10% fetal bovine serum. All cultured cells were maintained under the conditions of 37 °C temperature, 5% CO2, and 80% humidity. The regular monitoring for the absence of mycoplasma contamination was conducted using Lonza™ Mycoalert™ (Thermo Fisher Scientific, Waltham, MA, USA). Cultured cell-based viral replication assays were performed by the use of the HCMV strain AD169 (variant U.K.), the recombinant HCMVs AD169-GFP expressing green fluorescent protein [27], TB40 IE2-YFP and TB40-FLuc expressing an IE2-YFP fusion protein or firefly luciferase (FLuc), and Merlin-GFP [31]. […]
A variety of antiherpesviral and non-herpesviral drug activities were assessed by the cell culture-based viral replication systems, as described elsewhere. […] After incubation at 37 °C for 3 days, iSLK.219 cells were fixed with 10% formalin, washed with PBS, and used for a quantitation of RFP reporter signal by PicoMD counting (ImageXpress® Pico device, Molecular Devices LLC, San Jose, CA, USA). […]

As to `Cc1n[nH]c2ncc(C(=O)N3CCC[C@H]3c3ccc(Cl)cc3)cc12` [MSC-2530818], the EC50 amounted to 5.55 ± 5.63 nM in assay [1], 12.3 ± 11.3 nM in assay [2], 4.87 ± 4.67 nM in assay [3] and 2.5 ± 3 nM in assay [4].
As for `CN(C)C(=O)Cn1cc(-c2ccc(-c3cncc4ccccc34)cc2)cn1` [BI-1347], the EC50 in assay [1] was 0.54 ± 0.99 nM; in assay [2] it was 19.3 ± 21 nM; in assay [3], 1.08 ± 1.49 nM; in assay [4], 0.8 ± 1 nM.
For `Cn1ncc2cc(-c3cnc(N)c(Cl)c3N3CCC4(CCNC4=O)CC3)ccc21` [CCT-151921], in that order: 1.27 ± 1.17 nM, 8.5 ± 11.1 nM, 11.2 ± 22.7 nM and 22 ± 19 nM.

For orientation: EC50 means the concentration that produces a half-maximal response.
